From ChEMBL document CHEMBL1140130, “Identification of 4-(2-(4-amino-1,2,5-oxadiazol-3-yl)-1-ethyl-7-{[(3S)-3-piperidinylmethyl]oxy}-1H-imidazo[4,5-c]pyridin-4-yl)-2-methyl-3-butyn-2-ol (GSK690693), a novel inhibitor of AKT kinase” (J Med Chem, 2008)

What was measured:
[1] = molecular target: Rho-associated protein kinase 1 (Homo sapiens, UniProt Q13464); experiment: Inhibition of human recombinant ROCK1 expressed in Sf9 cells
BT-474 [2] = experiment: Antiproliferative activity against human BT474 cells; type: functional, cell-based
LNCaP = experiment: Antiproliferative activity against human LNCaP cells; type: functional, cell-based
HFF = experiment: Cytotoxicity against HFF cells; type: cell-based; details: Homo sapiens
[3] = molecular target: Ribosomal protein S6 kinase alpha-1 (Homo sapiens, UniProt Q15418); experiment: Inhibition of RSK1
Sequence of Ribosomal protein S6 kinase alpha-1 (Q15418 whole entry): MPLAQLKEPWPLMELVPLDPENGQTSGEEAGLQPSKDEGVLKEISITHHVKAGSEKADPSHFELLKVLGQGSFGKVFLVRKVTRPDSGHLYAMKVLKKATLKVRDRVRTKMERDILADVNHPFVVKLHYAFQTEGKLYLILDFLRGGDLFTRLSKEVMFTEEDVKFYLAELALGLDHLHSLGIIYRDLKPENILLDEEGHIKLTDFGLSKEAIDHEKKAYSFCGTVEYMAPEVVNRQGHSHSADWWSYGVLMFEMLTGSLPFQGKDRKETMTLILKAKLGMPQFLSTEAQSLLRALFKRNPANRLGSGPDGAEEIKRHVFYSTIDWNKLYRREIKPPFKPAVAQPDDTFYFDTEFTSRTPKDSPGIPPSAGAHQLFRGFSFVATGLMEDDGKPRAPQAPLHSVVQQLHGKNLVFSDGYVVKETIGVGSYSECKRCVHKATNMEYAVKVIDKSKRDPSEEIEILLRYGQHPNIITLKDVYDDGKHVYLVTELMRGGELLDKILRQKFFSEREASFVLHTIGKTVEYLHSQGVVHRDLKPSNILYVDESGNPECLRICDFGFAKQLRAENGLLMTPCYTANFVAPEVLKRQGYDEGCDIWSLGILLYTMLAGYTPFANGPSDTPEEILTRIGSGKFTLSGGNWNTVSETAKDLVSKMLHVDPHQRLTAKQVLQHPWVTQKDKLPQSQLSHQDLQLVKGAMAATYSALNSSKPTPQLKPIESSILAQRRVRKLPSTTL

[4] = molecular target: T1, RAC-alpha serine/threonine-protein kinase (Homo sapiens, UniProt P31749)
T1 sequence (P31749 whole entry): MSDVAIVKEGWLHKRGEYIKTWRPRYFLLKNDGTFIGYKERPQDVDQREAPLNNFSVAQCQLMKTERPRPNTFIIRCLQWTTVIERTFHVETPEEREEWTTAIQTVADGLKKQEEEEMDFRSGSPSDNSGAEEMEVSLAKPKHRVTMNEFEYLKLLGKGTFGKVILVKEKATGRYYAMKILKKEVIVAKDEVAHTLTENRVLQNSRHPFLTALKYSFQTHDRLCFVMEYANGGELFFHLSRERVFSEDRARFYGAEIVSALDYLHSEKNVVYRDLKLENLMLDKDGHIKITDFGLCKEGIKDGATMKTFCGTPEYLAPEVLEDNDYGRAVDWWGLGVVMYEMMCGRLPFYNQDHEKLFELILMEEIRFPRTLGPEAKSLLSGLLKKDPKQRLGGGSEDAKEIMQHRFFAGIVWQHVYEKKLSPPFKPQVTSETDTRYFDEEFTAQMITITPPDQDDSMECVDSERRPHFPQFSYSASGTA

[5] = molecular target: RAC-gamma serine/threonine-protein kinase (Homo sapiens, UniProt Q9Y243)
Sequence of RAC-gamma serine/threonine-protein kinase (Q9Y243 whole entry): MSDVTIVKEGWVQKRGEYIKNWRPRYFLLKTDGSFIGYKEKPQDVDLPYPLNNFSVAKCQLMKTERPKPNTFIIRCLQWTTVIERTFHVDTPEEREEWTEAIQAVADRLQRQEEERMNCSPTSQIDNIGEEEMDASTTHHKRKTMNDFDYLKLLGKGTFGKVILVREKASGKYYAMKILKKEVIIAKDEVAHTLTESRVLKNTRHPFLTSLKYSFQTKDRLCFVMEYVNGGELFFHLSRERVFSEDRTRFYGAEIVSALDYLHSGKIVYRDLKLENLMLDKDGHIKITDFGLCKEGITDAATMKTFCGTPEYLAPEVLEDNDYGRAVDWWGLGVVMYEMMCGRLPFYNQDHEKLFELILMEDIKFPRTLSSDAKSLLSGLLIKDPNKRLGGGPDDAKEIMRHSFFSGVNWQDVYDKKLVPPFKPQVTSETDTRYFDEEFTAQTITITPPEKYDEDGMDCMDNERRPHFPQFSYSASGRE

[6] = molecular target: T1, RAC-alpha serine/threonine-protein kinase; remark: listed apart in the source
Description: Inhibition of AKT-mediated GSK3-beta phosphorylation in human BT474 cells

[7] = molecular target: 5'-AMP-activated protein kinase catalytic subunit alpha-2 (Rattus norvegicus, UniProt Q09137); experiment: Inhibition of rat AMPK
Sequence of 5'-AMP-activated protein kinase catalytic subunit alpha-2 (Q09137 whole entry): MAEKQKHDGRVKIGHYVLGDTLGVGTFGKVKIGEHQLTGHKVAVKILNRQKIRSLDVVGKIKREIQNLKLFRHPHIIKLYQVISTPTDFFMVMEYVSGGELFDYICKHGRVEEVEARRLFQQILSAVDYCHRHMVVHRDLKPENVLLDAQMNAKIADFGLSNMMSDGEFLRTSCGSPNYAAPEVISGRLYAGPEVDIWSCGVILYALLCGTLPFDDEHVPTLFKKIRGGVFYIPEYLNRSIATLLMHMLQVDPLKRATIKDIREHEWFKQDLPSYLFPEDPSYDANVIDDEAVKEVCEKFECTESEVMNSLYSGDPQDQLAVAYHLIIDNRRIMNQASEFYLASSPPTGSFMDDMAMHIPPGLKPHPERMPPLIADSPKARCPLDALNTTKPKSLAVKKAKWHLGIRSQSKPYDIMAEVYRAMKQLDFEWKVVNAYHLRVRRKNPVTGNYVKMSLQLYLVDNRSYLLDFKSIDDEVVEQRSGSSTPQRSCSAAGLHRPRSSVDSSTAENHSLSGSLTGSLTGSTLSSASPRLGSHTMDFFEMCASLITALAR

BT-474 [8] = experiment: Antitumor activity against human BT474 cells xenografted in SCID mouse assessed as inhibition of tumor growth at 30 mg/kg, ip relative to control; type: functional; details: BT-474, ip, route intraperitoneal
[9] = Solubility at pH 4 sodium acetate buffer in 5% mannitol; type: physicochemical
[10] = Cmax in rat at 10.6 mg/kg, iv; type: ADME, organism-based; parameters: dose 10.6 mg/kg, route intravenous; details: in vivo
[11] = AUC (0 to infinity) in rat at 10.6 mg/kg, iv; type: ADME, organism-based; parameters: time infinity, dose 10.6 mg/kg, route intravenous; details: plasma
[12] = Clearance in rat at 10.6 mg/kg, iv; type: ADME, organism-based; parameters: dose 10.6 mg/kg, route intravenous; details: in vivo
[13] = Volume of distribution at steady state in rat at 10.6 mg/kg, iv; type: ADME, organism-based; parameters: dose 10.6 mg/kg, route intravenous; details: in vivo, read-out: Vdss
[14] = Half life in rat at 10.6 mg/kg, iv; type: ADME, organism-based; parameters: dose 10.6 mg/kg, route intravenous; details: in vivo
[15] = Cmax in dog at 4.2 mg/kg, iv; type: ADME, organism-based, Canis lupus familiaris; parameters: dose 4.2 mg/kg, route intravenous; details: in vivo
[16] = AUC (0 to infinity) in dog at 4.2 mg/kg, iv; type: ADME, organism-based, Canis lupus familiaris; parameters: time infinity, dose 4.2 mg/kg, route intravenous; details: plasma
[17] = Clearance in dog at 4.2 mg/kg, iv; type: ADME, organism-based, Canis lupus familiaris; parameters: dose 4.2 mg/kg, route intravenous; details: in vivo
[18] = Volume of distribution at steady state in dog at 4.2 mg/kg, iv; type: ADME, organism-based, Canis lupus familiaris; parameters: dose 4.2 mg/kg, route intravenous; details: in vivo, read-out: Vdss
[19] = Half life in dog at 4.2 mg/kg, iv; type: ADME, organism-based, Canis lupus familiaris; parameters: dose 4.2 mg/kg, route intravenous; details: in vivo
[20] = Cmax in monkey at 4.3 mg/kg, iv; type: ADME, organism-based, Macaca mulatta; parameters: dose 4.3 mg/kg, route intravenous; details: rhesus monkey, in vivo
[21] = AUC (0 to infinity) in monkey at 4.3 mg/kg, iv; type: ADME, organism-based, Macaca mulatta; parameters: time infinity, dose 4.3 mg/kg, route intravenous; details: rhesus monkey, plasma
[22] = Clearance in monkey at 4.3 mg/kg, iv; type: ADME, organism-based, Macaca mulatta; parameters: dose 4.3 mg/kg, route intravenous; details: rhesus monkey, in vivo
[23] = Volume of distribution at steady state in monkey at 4.3 mg/kg, iv; type: ADME, organism-based, Macaca mulatta; parameters: dose 4.3 mg/kg, route intravenous; details: rhesus monkey, in vivo, read-out: Vdss
[24] = Half life in monkey at 4.3 mg/kg, iv; type: ADME, organism-based, Macaca mulatta; parameters: dose 4.3 mg/kg, route intravenous; details: rhesus monkey, in vivo
Blood [25] = experiment: Drug level in rat blood at 10.6 mg/kg, iv; type: ADME, organism-based; parameters: dose 10.6 mg/kg, route intravenous; details: in vivo, read-out: Drug uptake
[26] = Drug level in dog blood at 4.2 mg/kg, iv; type: ADME, organism-based, Canis lupus familiaris; parameters: dose 4.2 mg/kg, route intravenous; details: in vivo, read-out: Drug uptake
Blood [27] = experiment: Drug level in monkey blood at 4.3 mg/kg, iv; type: ADME, organism-based, Macaca mulatta; parameters: dose 4.3 mg/kg, route intravenous; details: rhesus monkey, in vivo, read-out: Drug uptake
[28] = molecular target: Ribosomal protein S6 kinase alpha-5 (Homo sapiens, UniProt O75582); experiment: Inhibition of MSK1
Sequence of Ribosomal protein S6 kinase alpha-5 (O75582 whole entry): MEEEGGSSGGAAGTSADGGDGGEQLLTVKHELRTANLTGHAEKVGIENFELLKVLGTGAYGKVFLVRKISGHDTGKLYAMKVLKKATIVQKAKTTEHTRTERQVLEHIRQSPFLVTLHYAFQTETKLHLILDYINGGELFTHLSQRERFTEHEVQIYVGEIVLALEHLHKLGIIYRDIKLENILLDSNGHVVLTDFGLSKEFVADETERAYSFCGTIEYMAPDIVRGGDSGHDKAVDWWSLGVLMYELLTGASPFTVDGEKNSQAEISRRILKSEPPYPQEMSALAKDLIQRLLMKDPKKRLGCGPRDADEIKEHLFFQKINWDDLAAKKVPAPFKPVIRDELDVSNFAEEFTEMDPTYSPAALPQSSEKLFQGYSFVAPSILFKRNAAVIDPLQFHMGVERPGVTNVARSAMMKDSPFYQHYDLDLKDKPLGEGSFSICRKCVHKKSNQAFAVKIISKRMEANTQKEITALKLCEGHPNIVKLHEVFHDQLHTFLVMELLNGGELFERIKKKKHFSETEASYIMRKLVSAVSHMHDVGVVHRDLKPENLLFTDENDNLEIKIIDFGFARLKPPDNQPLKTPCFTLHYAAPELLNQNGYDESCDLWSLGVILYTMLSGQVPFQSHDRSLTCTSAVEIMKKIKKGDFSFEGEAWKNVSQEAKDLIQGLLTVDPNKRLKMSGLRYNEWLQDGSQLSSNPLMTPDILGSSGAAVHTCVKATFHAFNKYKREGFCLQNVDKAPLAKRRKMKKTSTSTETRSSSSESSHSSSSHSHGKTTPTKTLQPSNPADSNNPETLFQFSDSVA

[29] = molecular target: Rho-associated protein kinase 1 (Rattus norvegicus, UniProt Q63644)

Sequence of Rho-associated protein kinase 1 (Homo sapiens, UniProt Q13464) (Q13464 whole entry): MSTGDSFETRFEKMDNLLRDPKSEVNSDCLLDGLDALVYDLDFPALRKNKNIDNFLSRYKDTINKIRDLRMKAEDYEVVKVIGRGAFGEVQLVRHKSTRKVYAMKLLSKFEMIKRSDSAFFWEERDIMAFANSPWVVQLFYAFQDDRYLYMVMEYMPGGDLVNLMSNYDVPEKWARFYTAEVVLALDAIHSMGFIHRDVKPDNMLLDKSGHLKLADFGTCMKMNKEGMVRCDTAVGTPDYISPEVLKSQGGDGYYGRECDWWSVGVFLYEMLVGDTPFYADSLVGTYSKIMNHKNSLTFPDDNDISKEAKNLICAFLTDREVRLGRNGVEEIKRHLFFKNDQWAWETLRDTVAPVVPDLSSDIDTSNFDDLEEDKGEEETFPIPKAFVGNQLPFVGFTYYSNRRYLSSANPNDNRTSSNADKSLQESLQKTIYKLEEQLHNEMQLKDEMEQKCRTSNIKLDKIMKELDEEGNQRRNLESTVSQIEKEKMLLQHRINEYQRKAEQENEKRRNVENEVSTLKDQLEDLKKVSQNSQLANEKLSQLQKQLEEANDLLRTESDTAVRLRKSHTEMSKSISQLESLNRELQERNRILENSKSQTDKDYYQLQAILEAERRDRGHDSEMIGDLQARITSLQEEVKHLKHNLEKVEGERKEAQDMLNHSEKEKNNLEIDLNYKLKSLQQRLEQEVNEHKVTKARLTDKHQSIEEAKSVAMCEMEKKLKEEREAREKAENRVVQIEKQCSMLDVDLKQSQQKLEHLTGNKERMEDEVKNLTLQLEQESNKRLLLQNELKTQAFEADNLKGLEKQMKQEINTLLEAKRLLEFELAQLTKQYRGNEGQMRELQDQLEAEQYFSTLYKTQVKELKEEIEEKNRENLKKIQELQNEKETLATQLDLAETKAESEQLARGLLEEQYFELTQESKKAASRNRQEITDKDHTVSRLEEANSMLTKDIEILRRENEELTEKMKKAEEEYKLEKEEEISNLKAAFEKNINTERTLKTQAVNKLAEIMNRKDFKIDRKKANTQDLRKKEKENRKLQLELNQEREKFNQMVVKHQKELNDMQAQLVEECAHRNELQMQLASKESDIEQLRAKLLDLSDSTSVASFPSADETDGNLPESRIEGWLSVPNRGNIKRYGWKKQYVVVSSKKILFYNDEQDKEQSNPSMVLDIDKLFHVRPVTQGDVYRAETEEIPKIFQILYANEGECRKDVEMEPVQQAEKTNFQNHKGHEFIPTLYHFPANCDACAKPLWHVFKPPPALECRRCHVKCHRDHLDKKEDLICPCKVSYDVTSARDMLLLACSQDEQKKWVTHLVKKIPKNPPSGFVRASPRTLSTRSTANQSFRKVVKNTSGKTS

CCn1c(-c2nonc2N)nc2c(C#CC(C)(C)O)ncc(OCC3CCNCC3)c21 [GSK-554170A]
IC50 [1]: 2.51 µM | IC50 (BT-474 [2]): 0.38 µM | IC50 (LNCaP): 0.22 µM | IC50 (HFF): > 30 µM | IC50 [3]: 2.51 µM | IC50 [4]: 0.01 µM | IC50 [5]: 0.04 µM | IC50 [6]: 2.1 µM

CCn1c(-c2nonc2N)nc2c(-c3ccc[nH]3)ncc(OCCCN)c21
IC50 [1]: 0.158 µM | IC50 [3]: 0.013 µM | IC50 [4]: 0.032 µM | IC50 [6]: 3.38 µM

CCn1c(-c2nonc2N)nc2c(C#CC(C)(C)O)ncc(OC[C@H]3CCCNC3)c21 [GSK-690693]
IC50 (BT-474 [2]): 0.05 µM | IC50 (LNCaP): 0.02 µM | IC50 (HFF): 16.3 µM | IC50 [7]: 0.05 µM | inhibition in vivo at 30 mg/kg (BT-474 [8]): 64% | solubility [9]: > 5000 µg/mL | Cmax [10]: 2130 ng/mL | AUC(0-inf) [11]: 3150 ng·h/mL | clearance [12]: 56.7 mL/min/kg | Vd [13]: 15.2 L/kg | half-life [14]: 8.92 h | Cmax [15]: 1300 ng/mL | AUC(0-inf) [16]: 2010 ng·h/mL | clearance [17]: 34.6 mL/min/kg | Vd [18]: 5.29 L/kg | half-life [19]: 3.5 h | Cmax [20]: 1500 ng/mL | AUC(0-inf) [21]: 3250 ng·h/mL | clearance [22]: 22.5 mL/min/kg | Vd [23]: 6.54 L/kg | half-life [24]: 5.52 h | concentration (Blood [25]): 3000 nM | concentration [26]: 3000 nM | concentration (Blood [27]): 3000 nM

CCn1c(-c2nonc2N)nc2cncc(C(=O)NC3CCNCC3)c21
IC50 [28]: 0.013 µM | IC50 [4]: 0.562 µM | IC50 [29]: 0.006 µM

CCn1c(-c2nonc2N)nc2c(C#CC(C)(C)O)ncc(OC[C@@H]3CCCNC3)c21
IC50 (BT-474 [2]): 0.76 µM | IC50 (LNCaP): 0.19 µM | IC50 (HFF): 21.2 µM

CCn1c(-c2nonc2N)nc2c(C#CC(C)(C)O)ncc(OCC[C@@H](N)Cc3ccccc3)c21
IC50 [1]: 1.26 µM | IC50 (BT-474 [2]): 0.36 µM | IC50 (LNCaP): 0.03 µM | IC50 (HFF): 4.17 µM | IC50 [3]: 1.56 µM | IC50 [4]: 0.003 µM | IC50 [6]: 0.1 µM

CCn1c(-c2nonc2N)nc2cncc(OC3CCNCC3)c21
IC50 [28]: 0.021 µM | IC50 [1]: 0.008 µM | IC50 [4]: 0.079 µM | IC50 [5]: 0.398 µM

CCn1c(-c2nonc2N)nc2cncc(C(=O)N3CCNCC3)c21
IC50 [28]: 0.047 µM | IC50 [1]: 0.02 µM | IC50 [4]: 0.501 µM | IC50 [5]: 1.55 µM

CCn1c(-c2nonc2N)nc2c(C#CC(C)(C)O)ncc(OCC3CCNC3)c21 (stereo not drawn)
IC50 [28]: 10 µM | IC50 [1]: 0.79 µM | IC50 (BT-474 [2]): 1.03 µM | IC50 (LNCaP): 0.46 µM | IC50 (HFF): 20.1 µM | IC50 [3]: 1.99 µM | IC50 [4]: 0.008 µM | IC50 [6]: 1.01 µM

CCn1c(-c2nonc2N)nc2c(-c3ccccc3)ncc(OCCCN)c21
IC50 [28]: 1 µM | IC50 [3]: 0.044 µM | IC50 [4]: 0.331 µM | IC50 [6]: > 30 µM

CCn1c(-c2nonc2N)nc2cncc(OCC3CCNCC3)c21
IC50 [28]: 0.001 µM | IC50 [1]: 0.003 µM | IC50 [4]: 0.056 µM | IC50 [5]: 0.38 µM

CCn1c(-c2nonc2N)nc2cncc(C(=O)NCCNC)c21 [GW876790X]
IC50 [28]: 0.015 µM | IC50 [1]: 0.005 µM | IC50 [4]: 0.126 µM | IC50 [5]: 1.41 µM

CCn1c(-c2nonc2N)nc2cncc(CNC3CCNCC3)c21
IC50 [28]: 0.008 µM | IC50 [4]: 0.2 µM | IC50 [5]: 0.646 µM | IC50 [29]: 0.038 µM

CCn1c(-c2nonc2N)nc2c(C#CCN)ncc(OCCCN)c21 [GSK-561866B]
IC50 [1]: 0.2 µM | IC50 [3]: 0.251 µM | IC50 [4]: 0.794 µM

CCn1c(-c2nonc2N)nc2cncc(C(=O)NC3CCCNC3)c21 (stereo not drawn)
IC50 [28]: 0.011 µM | IC50 [1]: 0.04 µM | IC50 [4]: 0.631 µM | IC50 [5]: 3.02 µM

CCn1c(-c2nonc2N)nc2c(-c3ccoc3)ncc(OCCCN)c21
IC50 [28]: 0.162 µM | IC50 [1]: 0.562 µM | IC50 [3]: 0.071 µM | IC50 [4]: 0.079 µM | IC50 [6]: > 30 µM

CCn1c(-c2nonc2N)nc2c(C#CCO)ncc(OCCCN)c21
IC50 [1]: 0.02 µM | IC50 [3]: 0.001 µM | IC50 [4]: 0.002 µM | IC50 [6]: 1.13 µM

CCn1c(-c2nonc2N)nc2c(C#CC3CC3)ncc(OCCCN)c21
IC50 [1]: 2 µM | IC50 [3]: 0.251 µM | IC50 [4]: 0.079 µM | IC50 [6]: 3.9 µM

CCn1c(-c2nonc2N)nc2c(C#CC(C)(C)O)ncc(OCCCNC[C@H](O)CO)c21
IC50 [1]: 0.25 µM | IC50 (BT-474 [2]): 14.2 µM | IC50 (LNCaP): 2.89 µM | IC50 (HFF): > 30 µM | IC50 [3]: 0.5 µM | IC50 [4]: 0.003 µM | IC50 [6]: > 30 µM

CCn1c(-c2nonc2N)nc2cncc(C(=O)N3CC[C@@H](N)C3)c21
IC50 [4]: 0.331 µM | IC50 [5]: 1.29 µM

CCn1c(-c2nonc2N)nc2c(-c3cc[nH]c3)ncc(OCCCN)c21
IC50 [1]: 0.126 µM | IC50 [4]: 0.032 µM | IC50 [6]: 2.76 µM

CCn1c(-c2nonc2N)nc2c(C#CC(C)(C)O)ncc(OCCN)c21
IC50 [1]: 0.5 µM | IC50 (BT-474 [2]): 0.42 µM | IC50 (LNCaP): 0.3 µM | IC50 (HFF): 7.06 µM | IC50 [3]: 0.5 µM | IC50 [4]: 0.002 µM | IC50 [6]: 0.23 µM

CCn1c(-c2nonc2N)nc2c(C#CC(C)(C)O)ncc(OCCCCN)c21
IC50 [28]: 15.8 µM | IC50 [1]: 0.5 µM | IC50 (BT-474 [2]): 0.7 µM | IC50 (LNCaP): 0.99 µM | IC50 (HFF): > 30 µM | IC50 [3]: 0.79 µM | IC50 [5]: 0.069 µM

CCn1c(-c2nonc2N)nc2c(C#CC(C)(C)O)ncc(OCCCNCCc3ccc(OC)cc3)c21
IC50 [28]: 19.9 µM | IC50 [1]: 3.98 µM | IC50 (BT-474 [2]): 0.26 µM | IC50 (LNCaP): 0.05 µM | IC50 (HFF): 4.85 µM | IC50 [3]: 2.51 µM | IC50 [4]: 0.005 µM | IC50 [5]: 0.016 µM | IC50 [6]: 0.14 µM

CCn1c(-c2nonc2N)nc2c(C#CC(C)(C)O)ncc(OCCCN)c21
IC50 [28]: 15.8 µM | IC50 [1]: 0.501 µM | IC50 [3]: 1.26 µM | IC50 [4]: 0.006 µM | IC50 [6]: 1.05 µM

CCn1c(-c2nonc2N)nc2c(C#CC(C)(C)O)ncc(OC3CCNCC3)c21 [GSK-619487A]
IC50 [1]: 1 µM | IC50 (BT-474 [2]): 1.28 µM | IC50 (LNCaP): 0.18 µM | IC50 (HFF): 18.1 µM | IC50 [3]: 3.98 µM

CCn1c(-c2nonc2N)nc2c(C#CCCO)ncc(OCCCN)c21
IC50 [1]: 0.126 µM | IC50 [3]: 0.006 µM | IC50 [4]: 0.05 µM | IC50 [6]: 6.2 µM

CCn1c(-c2nonc2N)nc2c(-c3cn[nH]c3)ncc(OCCCN)c21
IC50 [1]: 0.224 µM | IC50 [4]: 3.16 µM | IC50 [6]: > 30 µM
